In the NIST ThermoML archive (doi:10.1016/j.jct.2015.02.011):
± gives the expanded uncertainty stated by the source.

Assay: refractive index (Na D-line) (dimensionless); xn = mol fraction of the nth substance listed
Conditions: 100.7 kPa, Liquid, Standard Abbe refractometry

CCCCn1cc[n+](C)c1.F[P-](F)(F)(F)(F)F [1-butyl-3-methylimidazolium hexafluorophosphate] + C1CCOC1
refractive index
Conditions | x1 = 0.0871 | x1 = 0.1801 | x1 = 0.2893 | x1 = 0.3939 | x1 = 0.4994 | x1 = 0.5709 | x1 = 0.7163 | x1 = 0.8069 | x1 = 0.9012 | x1 = 1
293.15 K | 1.41126 ± 0.0016 | 1.41369 ± 0.0016 | 1.41462 ± 0.0016 | 1.41441 ± 0.0016 | 1.41373 ± 0.0016 | 1.41332 ± 0.0016 | 1.41236 ± 0.0017 | 1.41205 ± 0.0017 | 1.41131 ± 0.0017 | 1.41068 ± 0.0017
298.15 K | 1.40906 ± 0.0016 | 1.41157 ± 0.0016 | 1.41279 ± 0.0016 | 1.41273 ± 0.0016 | 1.41208 ± 0.0016 | 1.4117 ± 0.0016 | 1.41089 ± 0.0017 | 1.41059 ± 0.0017 | 1.41014 ± 0.0017 | 1.40943 ± 0.0017
303.15 K | 1.40701 ± 0.0016 | 1.40957 ± 0.0016 | 1.41105 ± 0.0016 | 1.41113 ± 0.0016 | 1.41065 ± 0.0016 | 1.41025 ± 0.0016 | 1.40964 ± 0.0017 | 1.40935 ± 0.0017 | 1.40895 ± 0.0017 | 1.40818 ± 0.0017
308.15 K | 1.40475 ± 0.0016 | 1.40747 ± 0.0016 | 1.40915 ± 0.0016 | 1.40938 ± 0.0016 | 1.4092 ± 0.0016 | 1.40877 ± 0.0016 | 1.40818 ± 0.0017 | 1.40793 ± 0.0017 | 1.40778 ± 0.0017 | 1.40693 ± 0.0017
313.15 K | 1.40262 ± 0.0016 | 1.40554 ± 0.0016 | 1.40754 ± 0.0016 | 1.40784 ± 0.0016 | 1.40779 ± 0.0016 | 1.40748 ± 0.0016 | 1.40693 ± 0.0017 | 1.40681 ± 0.0017 | 1.40666 ± 0.0017 | 1.40567 ± 0.0017
318.15 K | 1.40012 ± 0.0016 | 1.40345 ± 0.0016 | 1.40558 ± 0.0016 | 1.40611 ± 0.0016 | 1.40619 ± 0.0016 | 1.40595 ± 0.0016 | 1.40552 ± 0.0017 | 1.40541 ± 0.0017 | 1.40525 ± 0.0017 | 1.40443 ± 0.0017
323.15 K | 1.39781 ± 0.0016 | 1.40139 ± 0.0016 | 1.40377 ± 0.0016 | 1.40455 ± 0.0016 | 1.40451 ± 0.0016 | 1.40452 ± 0.0016 | 1.40428 ± 0.0017 | 1.40425 ± 0.0017 | 1.40393 ± 0.0017 | 1.40312 ± 0.0017

CCCCCCn1cc[n+](C)c1.F[P-](F)(F)(F)(F)F [1-hexyl-3-methylimidazolium hexafluorophosphate] + C1CCOC1
refractive index
Conditions | x1 = 0.1036 | x1 = 0.2002 | x1 = 0.2868 | x1 = 0.4134 | x1 = 0.5222 | x1 = 0.6239 | x1 = 0.6951 | x1 = 0.7978 | x1 = 0.8953 | x1 = 1
293.15 K | 1.416 ± 0.0016 | 1.41971 ± 0.0016 | 1.42081 ± 0.0016 | 1.42058 ± 0.0016 | 1.41962 ± 0.0016 | 1.41895 ± 0.0016 | 1.41874 ± 0.0017 | 1.41868 ± 0.0017 | 1.41858 ± 0.0017 | 1.41958 ± 0.0017
298.15 K | 1.41392 ± 0.0016 | 1.41772 ± 0.0016 | 1.41878 ± 0.0016 | 1.41884 ± 0.0016 | 1.41828 ± 0.0016 | 1.41755 ± 0.0016 | 1.41759 ± 0.0017 | 1.41752 ± 0.0017 | 1.41756 ± 0.0017 | 1.41832 ± 0.0017
303.15 K | 1.41184 ± 0.0016 | 1.41573 ± 0.0016 | 1.41707 ± 0.0016 | 1.4171 ± 0.0016 | 1.41694 ± 0.0016 | 1.41615 ± 0.0016 | 1.41644 ± 0.0017 | 1.41636 ± 0.0017 | 1.41654 ± 0.0017 | 1.41692 ± 0.0017
308.15 K | 1.40966 ± 0.0016 | 1.41374 ± 0.0016 | 1.41536 ± 0.0016 | 1.41556 ± 0.0016 | 1.41536 ± 0.0016 | 1.41475 ± 0.0016 | 1.41509 ± 0.0017 | 1.41512 ± 0.0017 | 1.41552 ± 0.0017 | 1.41564 ± 0.0017
313.15 K | 1.40748 ± 0.0016 | 1.41175 ± 0.0016 | 1.41365 ± 0.0016 | 1.41402 ± 0.0016 | 1.41378 ± 0.0016 | 1.41335 ± 0.0016 | 1.41374 ± 0.0017 | 1.41388 ± 0.0017 | 1.4145 ± 0.0017 | 1.41422 ± 0.0017
318.15 K | 1.4053 ± 0.0016 | 1.40976 ± 0.0016 | 1.41194 ± 0.0016 | 1.41248 ± 0.0016 | 1.4122 ± 0.0016 | 1.41195 ± 0.0016 | 1.41239 ± 0.0017 | 1.41264 ± 0.0017 | 1.41348 ± 0.0017 | 1.41306 ± 0.0017
323.15 K | 1.40312 ± 0.0016 | 1.40777 ± 0.0016 | 1.41023 ± 0.0016 | 1.41094 ± 0.0016 | 1.41062 ± 0.0016 | 1.41055 ± 0.0016 | 1.41104 ± 0.0017 | 1.4114 ± 0.0017 | 1.41246 ± 0.0017 | 1.41175 ± 0.0017

CCCCCCCC[n+]1ccn(C)c1.F[P-](F)(F)(F)(F)F [1-octyl-3-methylimidazolium hexafluorophosphate] + C1CCOC1
refractive index
Conditions | x1 = 0.0767 | x1 = 0.1791 | x1 = 0.2783 | x1 = 0.3996 | x1 = 0.5198 | x1 = 0.612 | x1 = 0.6957 | x1 = 0.7754 | x1 = 0.8991 | x1 = 1
293.15 K | 1.41505 ± 0.0016 | 1.4205 ± 0.0016 | 1.42326 ± 0.0016 | 1.42412 ± 0.0016 | 1.42414 ± 0.0016 | 1.42411 ± 0.0016 | 1.42421 ± 0.0017 | 1.42432 ± 0.0017 | 1.42436 ± 0.0017 | 1.42441 ± 0.0017
298.15 K | 1.41278 ± 0.0016 | 1.41848 ± 0.0016 | 1.42126 ± 0.0016 | 1.42242 ± 0.0016 | 1.42258 ± 0.0016 | 1.42272 ± 0.0016 | 1.42284 ± 0.0017 | 1.42306 ± 0.0017 | 1.42329 ± 0.0017 | 1.42312 ± 0.0017
303.15 K | 1.41061 ± 0.0016 | 1.41646 ± 0.0016 | 1.41956 ± 0.0016 | 1.42076 ± 0.0016 | 1.42102 ± 0.0016 | 1.42123 ± 0.0016 | 1.42161 ± 0.0017 | 1.42189 ± 0.0017 | 1.42202 ± 0.0017 | 1.42171 ± 0.0017
308.15 K | 1.40824 ± 0.0016 | 1.41452 ± 0.0016 | 1.41786 ± 0.0016 | 1.4191 ± 0.0016 | 1.41946 ± 0.0016 | 1.41974 ± 0.0016 | 1.42018 ± 0.0017 | 1.42042 ± 0.0017 | 1.42085 ± 0.0017 | 1.42029 ± 0.0017
313.15 K | 1.40587 ± 0.0016 | 1.41284 ± 0.0016 | 1.41616 ± 0.0016 | 1.41744 ± 0.0016 | 1.4179 ± 0.0016 | 1.41825 ± 0.0016 | 1.41865 ± 0.0017 | 1.41915 ± 0.0017 | 1.41958 ± 0.0017 | 1.41888 ± 0.0017
318.15 K | 1.4035 ± 0.0016 | 1.41116 ± 0.0016 | 1.41446 ± 0.0016 | 1.41578 ± 0.0016 | 1.41634 ± 0.0016 | 1.41676 ± 0.0016 | 1.41712 ± 0.0017 | 1.41788 ± 0.0017 | 1.41831 ± 0.0017 | 1.4175 ± 0.0017
323.15 K | 1.40113 ± 0.0016 | 1.40948 ± 0.0016 | 1.41276 ± 0.0016 | 1.41412 ± 0.0016 | 1.41478 ± 0.0016 | 1.41527 ± 0.0016 | 1.41559 ± 0.0017 | 1.41661 ± 0.0017 | 1.41704 ± 0.0017 | 1.41601 ± 0.0017
